Where “and” joins values, the source holds several entries; their conditions need not be identical. Identical values can stand only once. Inconclusive results and toxic doses are left out. Rule for the calls: active = survival T/C of 150% or more; inactive = T/C below 125% in these data.
Tested on: P388 leukemia ip, CD2F1 mice, survival T/C
Assay: NCI In Vivo Anticancer Drug Screen. Data for tumor model P388 Leukemia (intraperitoneal) in CD2F1 (CDF1) mice
Conditions: endpoint: median survival time, higher = longer survival
Summary of the method: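 Mice carrying the transplanted tumor received test compound or vehicle. Survival was recorded in each group, and the value is the treated-group measurement divided by that of the vehicle-treated control group.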

[1] = dose: 50.0 mg/kg/injection, schedule: Q01DX009 (ip), vehicle: Klucel (hydroxypropylcellulose) (HPC)
[2] = dose: 100.0 mg/kg/injection, schedule: Q01DX009 (ip), vehicle: Klucel (hydroxypropylcellulose) (HPC)
[3] = dose: 50.0 mg/kg/injection, schedule: Q01DX005 (ip), vehicle: Klucel (hydroxypropylcellulose) (HPC)
[4] = dose: 100.0 mg/kg/injection, schedule: Q01DX005 (ip), vehicle: Klucel (hydroxypropylcellulose) (HPC)
[5] = dose: 200.0 mg/kg/injection, schedule: Q01DX005 (ip), vehicle: Klucel (hydroxypropylcellulose) (HPC)
[6] = dose: 60.0 mg/kg/injection, schedule: Q01DX005 (ip), vehicle: saline with Tween-80
[7] = dose: 120.0 mg/kg/injection, schedule: Q01DX005 (ip), vehicle: saline with Tween-80
[8] = dose: 240.0 mg/kg/injection, schedule: Q01DX005 (ip), vehicle: saline with Tween-80
[9] = dose: 50.0 mg/kg/injection, schedule: Q01DX005 (ip), vehicle: saline with Tween-80
[10] = dose: 100.0 mg/kg/injection, schedule: Q01DX005 (ip), vehicle: saline with Tween-80
[11] = dose: 200.0 mg/kg/injection, schedule: Q01DX005 (ip), vehicle: saline with Tween-80
[12] = dose: 50.0 mg/kg/injection, schedule: Q01DX009 (ip), vehicle: saline with Tween-80

Measured: T/C

CN(C)CC/C([O-])=N/[n+]1c2c(nc3ccccc31)-c1cccc3cccc-2c13
inactive: dose: 25.0 mg/kg/injection, schedule: Q01DX009 (ip), vehicle: Klucel (hydroxypropylcellulose) (HPC) 109 % of control | [1] 111 % of control | [2] 116 % of control

CCC(CO)[N-]CC[N-]C(CC)CO.CCC(CO)[N-]CC[N-]C(CC)CO.O.O.[Pd+2].[Pd+2] (stereo unspecified)
inactive: [3] 91 % of control | [4] 97 % of control | [5] 98 % of control

O=c1[nH]c(=O)c2ncsc2[nH]1
inactive: dose: 25.0 mg/kg/injection, schedule: Q01DX001 (ip), vehicle: saline with Tween-80 100 % of control | dose: 50.0 mg/kg/injection, schedule: Q01DX001 (ip), vehicle: saline with Tween-80 100 % of control and 104 % of control | dose: 100.0 mg/kg/injection, schedule: Q01DX001 (ip), vehicle: saline with Tween-80 100 % of control and 113 % of control | dose: 200.0 mg/kg/injection, schedule: Q01DX001 (ip), vehicle: saline with Tween-80 118 % of control

CN1C(=O)/C(=C2\SC(=O)N(CN3CCOCC3)C2=O)c2ccccc21
inactive: [3] 106 % of control | [4] 99 % of control | [5] 104 % of control

COC1(OC)C2(Cl)CC(C(=O)O)C1(Cl)C(Cl)=C2Cl (stereo unspecified)
inactive: [6] 102 % of control | [7] 99 % of control | [8] 104 % of control

O=C(Nc1cccc2c1C(=O)c1cccc(Nc3cccc4c3C(=O)c3cccc(NC(=O)c5ccccc5)c3C4=O)c1C2=O)c1ccccc1
inactive: [9] 101 % of control and 94 % of control | [10] 88 % of control and 92 % of control | [11] 93 % of control

CCCNc1nc2c(c(=O)n1-c1ccccc1)C=C(C(=O)OC)CCN2S(=O)(=O)c1ccc(C)cc1
inactive: [6] 108 % of control | [7] 101 % of control | [8] 105 % of control

O=C(O)CCNC1=CC(=O)c2ccccc2C1=O
inactive: [1] 102 % of control | [2] 110 % of control

Cn1nc2c(c(Cl)c1=O)Nc1ccccc1O2
inactive: [6] 108 % of control | [7] 104 % of control | [8] 96 % of control

O=c1c2ccccc2ncn1CC1(O)CC2NCCCC2O1 (stereo unspecified)
inactive: dose: 2.0 mg/kg/injection, schedule: Q01DX009 (ip), vehicle: distilled water + Tween-80 115 % of control | dose: 4.0 mg/kg/injection, schedule: Q01DX009 (ip), vehicle: distilled water + Tween-80 117 % of control | dose: 5.0 mg/kg/injection, schedule: Q01DX009 (ip), vehicle: Klucel (hydroxypropylcellulose) (HPC) 116 % of control | dose: 8.0 mg/kg/injection, schedule: Q01DX009 (ip), vehicle: distilled water + Tween-80 102 % of control | dose: 10.0 mg/kg/injection, schedule: Q01DX009 (ip), vehicle: Klucel (hydroxypropylcellulose) (HPC) 107 % of control | dose: 16.0 mg/kg/injection, schedule: Q01DX009 (ip), vehicle: distilled water + Tween-80 117 % of control | dose: 20.0 mg/kg/injection, schedule: Q01DX009 (ip), vehicle: Klucel (hydroxypropylcellulose) (HPC) 98 % of control

COc1cc2c(cc1OC)C1C(C(=O)O)c3ccc(OC)c(OC)c3C(=O)N1CC2 (stereo unspecified)
inactive: dose: 50.0 mg/kg/injection, schedule: Q04DX003 (ip), vehicle: distilled water + Tween-80 100 % of control | dose: 100.0 mg/kg/injection, schedule: Q04DX003 (ip), vehicle: distilled water + Tween-80 101 % of control | dose: 200.0 mg/kg/injection, schedule: Q04DX003 (ip), vehicle: distilled water + Tween-80 103 % of control | dose: 400.0 mg/kg/injection, schedule: Q04DX003 (ip), vehicle: distilled water + Tween-80 89 % of control

CCOC(=O)Nc1nc2ccccc2n1CN1CCN(c2ccccc2)CC1
inactive: dose: 25.0 mg/kg/injection, schedule: Q01DX005 (ip), vehicle: Klucel (hydroxypropylcellulose) (HPC) 92 % of control | [3] 95 % of control | [4] 100 % of control

COc1cc(O)c(C/C=C/c2ccccc2)cc1O
inactive: dose: 2.5 mg/kg/injection, schedule: Q01DX009 (ip), vehicle: saline with Tween-80 102 % of control | dose: 5.0 mg/kg/injection, schedule: Q01DX009 (ip), vehicle: saline with Tween-80 105 % of control | dose: 10.0 mg/kg/injection, schedule: Q01DX009 (ip), vehicle: saline with Tween-80 103 % of control

O=C(COc1ccc(Cl)cc1)NN1CCCCCC1
inactive: dose: 7.5 mg/kg/injection, schedule: Q01DX005 (ip), vehicle: Klucel (hydroxypropylcellulose) (HPC) 99 % of control | dose: 15.0 mg/kg/injection, schedule: Q01DX005 (ip), vehicle: Klucel (hydroxypropylcellulose) (HPC) 98 % of control

C1CCC2[N-]CCCC2C1.C1CCC2[N-]CCCC2C1.O=[N+]([O-])O.O=[N+]([O-])O.[Cu+2] (stereo unspecified)
inactive: dose: 7.5 mg/kg/injection, schedule: Q01DX005 (ip), vehicle: saline with Tween-80 99 % of control | dose: 15.0 mg/kg/injection, schedule: Q01DX005 (ip), vehicle: saline with Tween-80 99 % of control

O=C(c1ccccc1)C(SSN1CCOCC1)C(=O)c1ccccc1
inactive: [12] 91 % of control | dose: 100.0 mg/kg/injection, schedule: Q01DX009 (ip), vehicle: saline with Tween-80 100 % of control | dose: 200.0 mg/kg/injection, schedule: Q01DX009 (ip), vehicle: saline with Tween-80 106 % of control

O=C(Nc1ccc(N=Nc2ccccc2)cc1)SCCO
inactive: [9] 102 % of control | [10] 108 % of control

O=C1C=CC(=O)N1C(=O)NC(NC(=O)N1C(=O)C=CC1=O)c1ccc2c(c1)OCO2
inactive: dose: 25.0 mg/kg/injection, schedule: Q01DX005 (ip), vehicle: saline with Tween-80 102 % of control | [9] 98 % of control | [10] 95 % of control | [11] 102 % of control

C=C(Cl)CN(CC)CCO
inactive: dose: 25.0 mg/kg/injection, schedule: Q01DX009 (ip), vehicle: saline sonified 100 % of control | dose: 50.0 mg/kg/injection, schedule: Q01DX009 (ip), vehicle: saline sonified 100 % of control | dose: 100.0 mg/kg/injection, schedule: Q01DX009 (ip), vehicle: saline sonified 100 % of control

Clc1cc(-c2ccccc2)no1
inactive: dose: 25.0 mg/kg/injection, schedule: Q04DX003 (ip), vehicle: Klucel (hydroxypropylcellulose) (HPC) 109 % of control | dose: 50.0 mg/kg/injection, schedule: Q04DX003 (ip), vehicle: Klucel (hydroxypropylcellulose) (HPC) 108 % of control | dose: 100.0 mg/kg/injection, schedule: Q04DX003 (ip), vehicle: Klucel (hydroxypropylcellulose) (HPC) 99 % of control and 112 % of control

CCOc1cccc(/C=N\Nc2nc(=O)cc(C(=O)OC)s2)c1O
inactive: [9] 97 % of control | [10] 104 % of control | [11] 107 % of control

COc1cccc(/C=C/C(=O)C(CN(C)C)CN(C)C)c1
inactive: dose: 6.25 mg/kg/injection, schedule: Q01DX005 (ip), vehicle: saline 100 % of control | dose: 12.5 mg/kg/injection, schedule: Q01DX005 (ip), vehicle: saline 106 % of control

Cc1ccc(NC(=O)NCc2ccco2)cc1[N+](=O)[O-]
inactive: [3] 96 % of control | [4] 96 % of control | [5] 89 % of control

Clc1ccccc1-c1nnc(-c2cccc(-c3nnc(-c4ccccc4Cl)s3)c2)s1
inactive: [9] 91 % of control | [10] 89 % of control | [11] 90 % of control

COc1ccc(-c2cc3cc(OC)c(OC)cc3c(-c3ccccc3)n2)cc1OC
inactive: [6] 98 % of control | [7] 95 % of control | [8] 90 % of control

O=[N+]([O-])c1cccc(C=Nc2ccc(/C=C/C3(CCl)OCCO3)cc2)c1
inactive: [1] 98 % of control | [2] 97 % of control | dose: 200.0 mg/kg/injection, schedule: Q01DX009 (ip), vehicle: Klucel (hydroxypropylcellulose) (HPC) 91 % of control

Cc1ccc(NCCN2CCCCC2)c2c(=O)c3ccc(Cl)cc3sc12
inactive: dose: 60.0 mg/kg/injection, schedule: Q01DX005 (ip), vehicle: Klucel (hydroxypropylcellulose) (HPC) 94 % of control | dose: 120.0 mg/kg/injection, schedule: Q01DX005 (ip), vehicle: Klucel (hydroxypropylcellulose) (HPC) 86 % of control | dose: 240.0 mg/kg/injection, schedule: Q01DX005 (ip), vehicle: Klucel (hydroxypropylcellulose) (HPC) 97 % of control

CON/C=C(C#N)/C=C/C=Nc1ccc(S(=O)(=O)N=C(N)N)cc1
inactive: dose: 12.5 mg/kg/injection, schedule: Q01DX009 (ip), vehicle: saline with Tween-80 98 % of control | dose: 25.0 mg/kg/injection, schedule: Q01DX009 (ip), vehicle: saline with Tween-80 93 % of control | [12] 87 % of control and 92 % of control

— PubChem BioAssay AID330 (DTP/NCI, 2004)
